ChEMBL document CHEMBL5154661, “Novel 2-phenyl-3-(Pyridin-2-yl) thiazolidin-4-one derivatives as potent inhibitors for proliferation of osteosarcoma cells in vitro and in vivo” (Eur J Med Chem, 2022)
In brackets after ≈: the same amount, converted by molar mass.

What was measured:
HOS-TE85 [1] = experiment: Antiproliferative activity against human MNNG/HOS cells assessed as cell growth inhibition measured after 72 hrs by CCK-8 assay; type: functional, cell-based; conditions: HOS-TE85, 72 h
[2] = Microsomal stability in human liver microsomes assessed as intrinsic clearance at 0.1 uM incubated for 10 mins in presence of NADPH by LC-MS/MS analysis; type: ADME, Microsome
[3] = Microsomal stability in rat liver microsomes assessed as intrinsic clearance at 0.1 uM incubated for 10 mins in presence of NADPH by LC-MS/MS analysis; type: ADME, Microsome
[4] = Microsomal stability in mouse liver microsomes assessed as intrinsic clearance at 0.1 uM incubated for 10 mins in presence of NADPH by LC-MS/MS analysis; type: ADME, Microsome
[5] = Kinetic solubility of compound at pH 6.8 by turbidimetry method; type: physicochemical; conditions: buffer, read-out: Kinetic_solubility
[6] = Kinetic solubility of compound at pH 7.4 by turbidimetry method; type: physicochemical; conditions: buffer, read-out: Kinetic_solubility
SJSA-1 [7] = experiment: Antiproliferative activity against human SJSA-1 assessed as cell growth inhibition at 1 uM measured after 72 hrs by CCK-8 assay relative to control; type: functional
U2OS = experiment: Antiproliferative activity against human U2OS cells assessed as cell growth inhibition at 1 uM measured after 72 hrs by CCK-8 assay relative to control; type: functional
HOS = experiment: Antiproliferative activity against human HOS cells assessed as cell growth inhibition at 1 uM measured after 72 hrs by CCK-8 assay relative to control; type: functional
HOS-TE85 [8] = experiment: Antiproliferative activity against human MNNG/HOS cells assessed as cell growth inhibition at 1 uM measured after 72 hrs by CCK-8 assay relative to control; type: functional
MG-63 [9] = experiment: Antiproliferative activity against human MG-63 cells assessed as cell growth inhibition at 1 uM measured after 72 hrs by CCK-8 assay relative to control; type: functional
143B = experiment: Antiproliferative activity against human 143B cells assessed as cell growth inhibition at 1 uM measured after 72 hrs by CCK-8 assay relative to control; type: functional
HOS-TE85 [10] = experiment: Antitumor activity against human MNNG/HOS cells xenografted in female BALB/c nude mouse assessed as tumor growth inhibition at 30 mg/kg, po administered daily for 18 days relative to control; type: functional; conditions: HOS-TE85, 432 h, time 18 day, read-out: TGI
[11] = Toxicity in BALB/c nude mouse xenografted with human MNNG/HOS cells assessed as body weight loss at 62.5 mg/kg, ip administered twice per day for 18 days; type: organism-based, HOS-TE85; conditions: in vivo, 432 h, time 18 day
SJSA-1 [12] = experiment: Antiproliferative activity against human SJSA-1 cells assessed as cell growth inhibition measured after 72 hrs by CCK-8 assay; type: functional, cell-based; conditions: SJSA-1, 72 h
MG-63 [13] = experiment: Antiproliferative activity against human MG-63 cells assessed as cell growth inhibition measured after 72 hrs by CCK-8 assay; type: functional, cell-based; conditions: MG-63, 72 h

Row | SMILES | IC50 (HOS-TE85 [1]) [nM] | intrinsic clearance (CLint) [2] [mL/min/g] | intrinsic clearance (CLint) [3] [mL/min/g] | intrinsic clearance (CLint) [4] [mL/min/g] | solubility kinetic [5] [µM] | solubility kinetic [6] [µM] | inhibition at 1 µM (SJSA-1 [7]) [%] | inhibition at 1 µM (U2OS) [%] | inhibition at 1 µM (HOS) [%] | inhibition at 1 µM (HOS-TE85 [8]) [%] | inhibition at 1 µM (MG-63 [9]) [%] | inhibition at 1 µM (143B) [%] | inhibition in vivo at 30 mg/kg (HOS-TE85 [10]) [%] | Activity [11] | IC50 (SJSA-1 [12]) [nM] | IC50 (MG-63 [13]) [nM]
1 | O=C(NCCCCc1ccccc1)c1cccc(C2SCC(=O)N2c2cccc(F)c2)c1 (stereo not given) | 32.4 | 1844 | 3244 | 2737 | 10 (≈ 4.49 µg/mL) | 10 (≈ 4.49 µg/mL) | 80 | 39 | 84 | 94 | 92 | 63 | – | – | – | –
2 | O=C(NCCCCc1ccccc1)c1cccc(C2SCC(=O)N2c2ccccc2)c1 (stereo not given) | 15.9 | – | – | – | – | – | 73 | 68 | 55 | 96 | 89 | 60 | – | – | – | –
3 | COc1cccc(OC)c1N1C(=O)CSC1c1cccc(C(=O)NCCCCc2ccccc2)c1 (stereo not given) | > 1000 | – | – | – | – | – | 72 | 41 | 80 | 95 | 80 | 31 | – | – | – | –
4 | CC(F)(F)c1cccc(N2C(=O)CSC2c2cccc(C(=O)NCCCCc3ccccc3)c2)c1 (stereo not given) | 29.1 | 1750 | 2323 | 2014 | 10 (≈ 4.95 µg/mL) | 2 (≈ 0.989 µg/mL) | 68 | 24 | 23 | 93 | 92 | 1 | – | – | – | –
5 | CNC(=O)c1cc(Oc2ccc(NC(=O)Nc3ccc(Cl)c(C(F)(F)F)c3)cc2)ccn1 [SORAFENIB] | – | – | – | – | – | – | – | – | – | – | – | – | 44.2 | Non-Toxic | – | –
6 | COc1c(F)cccc1N1C(=O)CSC1c1cccc(C(=O)NCCCCc2ccccc2)c1 (stereo not given) | 26.2 | – | – | – | – | – | 1 | 12 | 9 | 12 | 0 | 5 | – | – | – | –
7 | COc1ccccc1N1C(=O)C(C)SC1c1cccc(C(=O)NCCCCc2ccccc2)c1 (stereo not given) | 45.1 | 2657 | 2908 | 2948 | 20 (≈ 9.49 µg/mL) | 10 (≈ 4.75 µg/mL) | 84 | 38 | 82 | 95 | 94 | 61 | – | – | – | –
8 | COc1cc(F)ccc1N1C(=O)CSC1c1cccc(C(=O)NCCCCc2ccccc2)c1 (stereo not given) | 71.1 | – | – | – | – | – | 77 | 34 | 81 | 94 | 92 | 63 | – | – | – | –
9 | O=C(NCCCCc1ccccc1)c1cccc(C2SCC(=O)N2c2ccccc2F)c1 (stereo not given) | 34.1 | 1712 | 2946 | 2014 | 20 (≈ 8.97 µg/mL) | 10 (≈ 4.49 µg/mL) | 80 | 38 | 83 | 95 | 92 | 59 | – | – | – | –
10 | COc1ccccc1N1C(=O)CSC1C(=O)NCCCCc1ccccc1 (stereo not given) | > 1000 | – | – | – | – | – | 14 | 6 | 0 | 0 | 60 | 4 | – | – | – | –
11 | Cc1ccnc(N2C(=O)CSC2c2cccc(C(=O)NCCCCn3cccn3)c2)c1 (racemic) | 19.6 | 128.7 | 1022 | 392 | 50 (≈ 21.8 µg/mL) | 50 (≈ 21.8 µg/mL) | – | – | – | – | – | – | – | – | 33.2 | 38.9
12 | COc1ccc(F)cc1N1C(=O)CSC1c1cccc(C(=O)NCCCCc2ccccc2)c1 (stereo not given) | 8.8 | 1253 | 2298 | 2247 | 10 (≈ 4.79 µg/mL) | 10 (≈ 4.79 µg/mL) | 76 | 32 | 46 | 95 | 86 | 62 | – | – | – | –
13 | CCOc1ccccc1N1C(=O)C(C)SC1c1cccc(C(=O)NCCCCc2ccccc2)c1 (stereo not given) | 71.6 | – | – | – | – | – | 85 | 37 | 82 | 94 | 92 | 53 | – | – | – | –
14 | COc1ccc(OC)c(N2C(=O)CSC2c2cccc(C(=O)NCCCCc3ccccc3)c2)c1 (stereo not given) | > 1000 | – | – | – | – | – | 48 | 1 | 5 | 20 | 92 | 2 | – | – | – | –
15 | COc1ccccc1N1C(=O)CSC1c1cc(F)cc(C(=O)O)c1 (stereo not given) | > 1000 | – | – | – | – | – | 0 | 15 | 8 | 0 | 0 | 0 | – | – | – | –
16 | Cc1cccc(N2C(=O)CSC2c2cccc(C(=O)NCCCCc3ccccc3)c2)c1 (stereo not given) | 93.2 | 2553 | 3139 | 2936 | 10 (≈ 4.45 µg/mL) | 10 (≈ 4.45 µg/mL) | 84 | 39 | 84 | 96 | 93 | 71 | – | – | – | –
17 | COc1ccc(N2C(=O)CSC2c2cccc(C(=O)NCCCCc3ccccc3)c2)c(OC)c1 (stereo not given) | 90.4 | – | – | – | – | – | 85 | 37 | 82 | 58 | 56 | 53 | – | – | – | –
